Results on 13 molecules are retold here after patent EP0719267B1, “SECOND MESSENGER CELL SIGNALING INHIBITORS” (CELL THERAPEUTICS, INC., priority 1993, dated 1994).

Experiment [1] deals with murine cytotoxic T-cell line, CT6. As to the kind of experiment: Cytokine-induced proliferation of the cytotoxic T-cell line CT6 / CT-6.1. The experiment is classed as cell-based. The settings on record: added one hour prior to IL-2, thymidine at 48 hours. As to the method:
Another assay in this example was used to determine inhibitive activity of the inventive compounds on direct IL-2-induced proliferation in a murine cytotoxic T-cell line, CT6. The CT6 cell line is an IL-2-dependent cell line. IL-2 was removed from the medium for 24 hours prior to stimulation. […] 49, 50, 45, 43 or 41 were added at various concentrations. The cells were stimulated with IL-2 and amount of tritiated thymidine dye incorporated was measured 48 hours later.
In another related assay, inhibitory effects on CT6 cell proliferation is examined. CT6 cells are a murine IL-2 dependent, cytotoxic T cell line that proliferate in response to murine IL-2 (15 U/ml).
CT-6.1 cells were starved overnight and stimulated with IL-2 (20 ng/ml). Twenty hours later, cells were labeled for 4 hours with ^3H-TdR and counted by liquid scintillation.
CT6.1 cells were cultured with IL-2 with or without the addition of inventive compound no. 45 (2 µM) and viable cells counted for up to 8 days. On day 4, two cultures previously incubated with compound no. 45, were washed and recultured with fresh IL-2 with or without compound no. 45 (2 µM).
Procedurally, CT-6.1 cells were starved overnight and stimulated with either IL-2 (20 ng/ml), IL-4 (50 ng/ml) or IL-7 (25 ng/ml). ^3H-TdR was added at 20 hours, cells were harvested 4 hours later, and the incorporation of ^3H-TdR was determined.

The next experiment concerns Balb/3T3 cells. As to the kind of experiment: PDGF-induced proliferation of Balb/3T3 cells. The experiment is classed as cell-based, murine. As to the method:
Balb/3T3 cells respond vigorously to PDGF stimulation, and are useful in vitro models for further study of PDGF-induced proliferation. Disregulated PDGF-proliferative response has been linked to a variety of diseases, including, e.g., restenosis, atherosclerosis, fibrosis, and tumor cell angiogenesis. Cells were plated in low serum-containing medium for 24 hours prior to stimulation with various concentrations of inventive compound no. 45. PDGF-BB was added at constant 10 µM concentrations. Tritiated thymidine was added and cells harvested for scintillation counting 24 hours later. Figure 15 illustrates a dose response curve from this assay, including an IC50 value of approximately 0.08 µM, exemplifying inhibitory activity of the tested compound.
In another investigation similar to the Balb/3T3 proliferation assay of Example 32, IC50 and ID50 values for inventive compounds nos. 70, 45, 59 and 58 were determined. LD50 values were determined using a cytotoxicity assay, as in Example 32. In these assays, Balb/3T3 cells, stimulated with PDGF and treated with one of the above inventive compounds in a manner identical to the tritiated thymidine procedure above, were incubated instead with a viable dye BCECF, a fluorescent dye. Fluorescence was measured using a fluorescent plate reader. […] Figure 17 illustrates assay results by comparing […] value against LD50 values for the inventive compounds tested. Most compounds tested were non-cytotoxic yet were significant inhibitors of proliferation.
Inventive compounds nos. 77,7 and 78 were added at various concentrations one hour prior to PDGF stimulation. PDGF-BB was added at a constant 10 µM concentrations along with tritiated thymidine. The cells were allowed to incubate for one day, following addition of PDGF and tritiated thymidine. 24 Hours later, the cells were harvested and counted by liquid scintillation counting. Results for compounds nos.77, 7 and 78 are shown in figures 26A, 26B and 26C, respectively. Background counts were approximately 1% of control levels.
Results obtained for compound no. 50 in the PDGF-induced proliferation of Balb/3T3 cells (Example 32), reported in figure 28, illustrate the inhibitive properties of this compound on proliferation induced by PDGF, representing significant inhibition at concentrations as low as 2 µM. […] 50, are capable of reducing tumor cell growth by blocking oncogene-induced events.
Figure 66 reports that inventive compound no. 45 inhibited PDGF-induced murine BALB/3T3 proliferation. Procedurally, cells were rested overnight in 0.2% serum and stimulated with 25 ng/ml PDGF. Compound no. 45 was added 1 hour prior to stimulation. Cells were pulsed with ^3H-TdR 24 hours later and harvested for scintillation counting 4 hours later.
Figures 66A and 66B are a dose response and cytoxicity curves, respectively, for inhibition of proliferation in Balb/3T3 cells by inventive compound no. 58. In the assay protocol, cells were starved overnight in 0.5% serum containing medium, followed by stimulation with 20 ng/ml PDGF for 24 hours. The cells were labeled with ^3H-TdR for 4 hours and harvested and counted by scintillation. Figure 66B illustrates that inventive compound no.
Figure 68 illustrates an effect of the delayed addition of inventive compound no. 58 to Balb/3T3 proliferation in response to PDGF-BB. Cells were stimulated with PDGF (20 ng/ml) and inventive compound no. 58 added either simultaneous with PDGF (0) or at various times after addition of PDGF, up to 6 hours later. At 24 hours, the cells were pulsed with ^3H-TdR and counted by scintillation four hours later. […] 58 was added as late as 20 hours after PDGF.
Figure 69 illustrates that inventive compound no. […] In the assay protocol, cells were serum starved for 24 hours before adding either 20 ng/ml PDGF or 10% serum. The cells were pulsed with ^3HTdR 24 hours later. Inventive compound no.

Experiment [2] deals with murine thymocyte proliferation. As to the kind of experiment: Thymocyte proliferation co-stimulated by ConA and IL-2 (tritiated thymidine). The experiment is classed as cell-based, Balb/C mice. The conditions noted are these: Mus musculus, Thymocyte, 96 h; ConA and IL-2 (15 U/ml), 4 days. How it is done:
ConA, used to activate CD3, induces T-cell proliferation and differentiation. Thymuses, obtained from normal, female Balb/C mice, were dissociated and plated into 96-well plates at a density of 2 x 10^5 cells/well. ConA (0.25 mg/ml) and IL-2 (15 U/ml) were added to the wells. The cells were incubated for 4 days at 37°C. On day 4, the cells were pulsed with tritiated thymidine and incubated for an additional 4 hours. The amount of tritiated thymidine dye incorporated by the harvested cells was determined in a liquid scintillation counter. Drug doses (shown in figs. 1A and 1B) were added two hours prior to ConA and IL-2 activation.
Thymuses, obtained from normal, female Balb/C mice, were dissociated and plated into 96-well plates at a density of 2 x 10^5 cells/well. ConA (0.25 mg/ml) and IL-2 (15 U/ml) were added to the wells. The cells were incubated for 4 days at 37 °C. On day 4, the cells were pulsed with tritiated thymidine and incubated for an additional 4 hours. The amount of tritiated thymidine dye incorporated by the harvested cells was determined in a liquid scintillation counter. Doses (shown in figs. 26A, 26B and 26C) were added two hours prior to ConA and IL-2 activation.
In another in vitro protocol, thymocyte proliferation was induced by sub-mitogenic doses of Con A (0.25 µg/ml) and IL-2 (20 ng/ml). Cells were stimulated for 96 hours, prior to addition of ^3H-TdR for 4 hours. The cells were harvested and incorporation of ^3H-TdR was determined.
45 on co-stimulated thymocyte proliferation. In an assay procedure, murine thymocytes were stimulated with ConA and IL-2 with 1 µM compound no. 45 added either 1 hour prior to IL-2 (-1), simultaneous with IL-2 (0) or at various times following IL-2 addition (1-92 hour). At 92 hours the thymocytes were pulsed with ^3H-TdR, harvested and counted by scintillation 4 hours later.

The subject of another experiment is CMV promoter activity. As to the kind of experiment: microbe, parasite or virus in culture. The experiment is classed as cell-based. The settings on record: transformed (adenovirus) cells. The text has this: This example illustrates data of proliferative activity of various inventive compounds for inducing CMV promoter activity. The CMV promoter assay measures gene transcription and translation activity wherein any active compounds will have cytotoxic activity for inhibiting cellular protein synthesis in transformed (adenovirus) cells. Compound no. […]

The subject of experiment [3] is proliferative PMBC response to allogeneic stimulation. The experiment in a line: Two-way mixed lymphocyte reaction. The experiment is classed as cell-based. The conditions noted are these: Lymphocyte; figs. 2A-2C. The text has this:
This example illustrates therapeutic potential for various autoimmune and inflammatory diseases of the inventive compounds by comparing potency (inhibitive activity) with cytotoxicity data obtained using the following indicative assay procedures. In a mixed lymphocyte reaction assay of compounds nos. […] Compounds nos. […] 2A and 2B. Both compounds nos. […] 2C.
Compound no. […] Compound no.

The test system of a further experiment is mast cell degranulation. As to the kind of experiment: Serotonin release assay for inhibition of mast cell degranulation. The conditions noted are these: Concentration 50 µM. The experiment is classed as cell-based. The text has this: This assay provides an in vitro model for an allergy and asthma therapeutic product. […]
The test system of a further experiment is Human stromal cells. The experiment in a line: Stromal cell proliferation in response to PDGF-BB. The experiment is classed as cell-based. The conditions noted are these: 50 ng/ml PDGF-BB. As to the method:
This assay is useful for predicting therapeutic activity for preventing or treating restenosis, atherosclerosis and coronary artery disease. Human stromal cells were starved in serum-free media for one day and then stimulated with 50 ng/ml PDGF-BB. Inventive compounds, at various concentrations, were added one hour prior to PDGF stimulation. PDGF and tritiated thymidine were added and the cells allowed to incubate for one day, following addition of the PDGF and thymidine. 24 Hours later, the cells were harvested and counted by liquid scintillation counting. Results for compounds nos. Background counts (i.e., starved cells) were approximately 1% of control levels. […] 30, 28, 29, 32 and 31, respectively.

Structures are written as SMILES. Where only a bound is given, the exact number is not on record here.

For `CCCCCCCCCCNCC(O)CCCCCCCn1c(=O)c2c(ncn2C)n(C)c1=O` (centres unmarked) [compound 41, 1-(9-Decylamino-8-hydroxynonyl)-3,7-dimethylxanthine], the “inhibition of direct IL-2-induced proliferation” value in experiment [1] is on record as “inhibited direct IL-2-induced CT6 proliferation”.
On to `CCCCCCCCCCCCCCNCC(O)CCCCCCCn1c(=O)c2c(ncn2C)n(C)c1=O` (centres unmarked) [compound 43, 1-(9-Tetradecylamino-8-hydroxynonyl)-3,7-dimethylxanthine], for which the “inhibition of direct IL-2-induced proliferation” value in experiment [1] is “inhibited direct IL-2-induced CT6 proliferation”.
For `CCCCCCCCNCC(O)CCCCCCCCC(=O)O` (centres unmarked) [compound 78, 11-Octylamino-10-hydroxyundecanoic acid], in the experiment on Balb/3T3 cells, the “inhibition of PDGF-induced proliferation” value is given as “inhibit Balb/3T3 proliferation”. This molecule also registered an IC50 in experiment [2] of 12.4 µM.
As for `CCCCCCCCNCC(O)CCCCCCCCC(=O)NC` (centres unmarked) [compound 79, 11-Octylamino-10-hydroxyundecanoic acid N-methyl amide], the concentration for half-maximal inhibition (IC50) in experiment [2] is 10.6 µM. In other words, the double-digit micromolar range.
Turning to `CCCCCCCCNCC(O)CCCCCCCCC(=O)N(C)C` (centres unmarked) [compound 80, 11-Octylamino-10-hydroxyundecanoic acid N,N-dimethyl amide], half-maximal inhibition in experiment [2] (IC50) was put at 3.8 µM.
As to `CCCNCC(O)CCCCNC(=O)CCCC(=O)NCCC` (centres unmarked) [compound no. 5, N^2-(5-hydroxy-6-(N^3-propyl)aminohexyl)-(N^1-propyl)glutaric acid], the IC50 with CMV promoter activity is above 500 µM; in experiment [3], above 250 µM.
Consider `CCCCCCCCNCC(O)CCCCCCCCCO` (centres unmarked) [compound no. 7, 1-Octylamino-2,11-undecadiol], for which the “inhibition of PDGF-induced proliferation” value with Balb/3T3 cells is “inhibit Balb/3T3 proliferation”.
In the experiment on CMV promoter activity, `CCCNCC(O)CCCCn1c(=O)ccn(C)c1=O` (centres unmarked) [compound no. 19, 3-(5-hydroxy-6-(N-propyl)aminohexyl)-1-methyluracil] came in with an IC50 above 500 µM. The “% Inhibition” value in the experiment with mast cell degranulation was “inactive”.
For the molecule `CCCNCC(O)CCCCn1c(=O)c(C)cn(C)c1=O` (centres unmarked) [compound no. 26, 3-(6-Propylamino-5-hydroxyhexyl)-1-methylthymine], the IC50 with CMV promoter activity was above 500 µM; in experiment [3], above 250 µM.
On to `Cn1cnc2c1c(=O)n(CCCCC(O)CNCCCCc1ccccc1)c(=O)n2C` (centres unmarked) [compound no. 29, 1-(5-hydroxy-6-(N-(4-phenyl)butyl)aminohexyl)-3,7-dimethylxanthine], for which the IC50 is above 100 µM in the experiment with CMV promoter activity and 40 µM in the experiment on Human stromal cells.
Take `Cn1cnc2c1c(=O)n(CCCCC(O)CNCC1CCCCC1)c(=O)n2C` (centres unmarked) [compound no. 31, 1-(5-hydroxy-6-(N-cyclohexylmethyl)aminohexyl)-3,7-dimethylxanthine]: the IC50 with CMV promoter activity is above 100 µM; in the experiment with Human stromal cells, above 50 µM.
With `Cn1cnc2c1c(=O)n(CCCCC(O)CNCCCCCCO)c(=O)n2C` (centres unmarked) [compound no. 32, 1-(5-hydroxy-6-(N-(6-hydroxy)hexyl)aminohexyl)-3,7-dimethylxanthine], the IC50 is above 100 µM with CMV promoter activity and above 50 µM in the experiment on Human stromal cells.
Turning to `CCCCCCCCNCC(O)CCCCCCCCCN(C)C(C)=O` (centres unmarked) [compound no. 77], in the experiment with Balb/3T3 cells, the “inhibition of PDGF-induced proliferation” value is given as “inhibit Balb/3T3 proliferation”.
